26 compounds from the SangsterLogP compilation can be followed below.

Each structure is given as a SMILES string. Where a SMILES comes first, the peptide text is derived from it. [ ]: non-standard residue; d: D form. Orn = NCCC[CH](N)C(=O)O

The first data set can be described thus: method code SF-AS, from DOI: 10.1002/jps.2600830720, PMID: 7965659. The following applies: pH 2.0.
On to `CC(=O)N[C@@H](CC(C)C)C(=O)N[C@@H](CC(=O)O)C(=O)N[C@@H](CC(C)C)C(N)=O`, for which the pH-dependent lipophilicity (logD) came to 0.16.
For the compound `CCC(C)C(NC(C)=O)C(=O)NC(CC(C)C)C(=O)NC(CC(=O)O)C(N)=O` (stereo not drawn) (Ac-Ile-Leu-Asp-NH2; configuration not given here), the pH-dependent lipophilicity (logD) was -0.04.
On the same count and under the same terms, the figure for `CC(=O)NC(Cc1ccccc1)C(=O)NC(CCC(=O)O)C(=O)NC(Cc1ccccc1)C(N)=O` (stereo not drawn) (Ac-Phe-Glu-Phe-NH2; configuration not given here) is 0.65; for `CC[C@H](C)[C@H](NC(=O)[C@H](CCC(=O)O)NC(C)=O)C(=O)N[C@@H](Cc1ccccc1)C(N)=O` (Ac-Glu-Ile-Phe-NH2) it is 0.43; for `CC[C@H](C)[C@H](NC(=O)[C@H](CC(=O)O)NC(C)=O)C(=O)N[C@@H](Cc1ccccc1)C(N)=O` it is 0.61.
The same measure, in the same setting: the figure for `CC(=O)N[C@@H](Cc1ccccc1)C(=O)N[C@@H](CC(=O)O)C(=O)N[C@@H](CC(C)C)C(N)=O` is 0.39.
`CC(=O)N[C@@H](CCC(=O)O)C(=O)N[C@@H](Cc1ccccc1)C(=O)N[C@@H](CC(C)C)C(N)=O` showed a pH-dependent lipophilicity (logD) of 0.32.
Still for that read-out and setting: the figure for `CC(=O)N[C@@H](CC(C)C)C(=O)N[C@@H](CCC(=O)O)C(=O)N[C@@H](Cc1ccccc1)C(N)=O` is 0.48; for `CC(=O)N[C@@H](CC(=O)O)C(=O)N[C@@H](Cc1ccccc1)C(=O)N[C@@H](CC(C)C)C(N)=O` it is 0.4; for `CCC(C)C(NC(=O)C(CC(C)C)NC(C)=O)C(=O)NC(CCC(=O)O)C(N)=O` (stereo not drawn) (Ac-Leu-Ile-Glu-NH2; configuration not given here) it is 0.07.

The same data set, now with this note: pH 7.0.
In turn, `CC[C@H](C)[C@H](NC(C)=O)C(=O)N[C@@H](CCSC)C(=O)N[C@@H](Cc1ccccc1)C(N)=O` (Ac-Ile-Met-Phe-NH2) yielded a pH-dependent lipophilicity (logD) of 1.28.
Same read-out and setting: the figure for `CC[C@H](C)[C@H](NC(C)=O)C(=O)N[C@@H](C)C(=O)N[C@H](C(N)=O)C(C)C` is -0.21; for `CSCC[C@H](NC(=O)[C@H](C)NC(C)=O)C(=O)N[C@H](C(N)=O)C(C)C` it is -0.63.
On to `CSCC[C@H](NC(C)=O)C(=O)N[C@@H](Cc1ccccc1)C(N)=O`, for which the log distribution coefficient (logD) is 0.42.
In turn, `CSCC[C@H](NC(C)=O)C(=O)N[C@H](C(N)=O)C(C)C` yielded a logD of -0.28.

The data set is the same for the next values; noted with them: pH 10.0.
As for `CC(=O)NCC(=O)N[C@@H](Cc1ccccc1)C(=O)N[C@@H](Cc1c[nH]cn1)C(N)=O`, the logD is -0.92.
Consider `CC(=O)NC(Cc1ccccc1)C(=O)NC(Cc1c[nH]c2ccccc12)C(=O)NC(Cc1cnc[nH]1)C(N)=O` (stereo not drawn) (Ac-Phe-Trp-His-NH2; configuration not given here), for which the log distribution coefficient (logD) amounted to 1.
On the same count and under the same terms, in the case of `CC[C@H](C)[C@H](NC(=O)[C@H](CCCN)NC(C)=O)C(=O)N[C@H](C(N)=O)C(C)C` it was -0.43; in that of `CC(=O)NC(Cc1ccccc1)C(=O)NC(Cc1c[nH]cn1)C(=O)NC(CC(C)C)C(N)=O` (stereo not drawn) (Ac-Phe-His-Leu-NH2; configuration not given here), 0.64.
In turn, `CCC(C)C(NC(=O)C(Cc1c[nH]cn1)NC(C)=O)C(=O)NC(Cc1ccccc1)C(N)=O` (stereo not drawn) (Ac-His-Ile-Phe-NH2; configuration not given here) gave a logD of 0.44.
In turn, `CC(=O)NC(CC(C)C)C(=O)NC(CCCN)C(=O)NC(Cc1ccccc1)C(N)=O` (stereo unspecified) (Ac-Leu-[Orn]-Phe-NH2; configuration not given here) registered a logD of 0.53.
`CC(=O)NC(Cc1c[nH]c2ccccc12)C(=O)NC(Cc1cnc[nH]1)C(=O)NC(C(N)=O)C(C)C` (stereo not drawn) (Ac-Trp-His-Val-NH2; configuration not given here): the logD worked out at 0.31.
Still for that read-out and setting: in the case of `CC(=O)NC(CCCN)C(=O)NC(CC(C)C)C(N)=O` (stereo unspecified) (Ac-[Orn]-Leu-NH2; configuration not given here) it was -0.71; in that of `CC(=O)NC(CCCN)C(=O)NC(Cc1ccccc1)C(=O)NC(CC(C)C)C(N)=O` (stereo not drawn) (Ac-[Orn]-Phe-Leu-NH2; configuration not given here), 0.54.
Same read-out and setting: in the case of `CC[C@H](C)[C@H](NC(C)=O)C(=O)N[C@@H](Cc1c[nH]cn1)C(=O)N[C@H](C(N)=O)C(C)C` it was -0.24; in that of `CC(=O)NC(CCCN)C(=O)NC(Cc1ccccc1)C(N)=O` (stereo unspecified), -0.41.

For orientation: logD means the decadic logarithm of the distribution of all forms, ionised or not, between an organic phase and buffer at a given pH.
